Where two headings read alike, the source gives them in different places.
What was measured:
[1] = system: intracellular ROS production in 3T3-L1 murine fibroblasts; test: Intracellular ROS (H2DCF-DA) in menadione-treated 3T3-L1 fibroblasts; type: cell-based; conditions: menadione 25 µM, 15 min; for ROS production reduced to, compared to Men treatment alone: 24 h
Method: N-acetyl-cysteine (NAC), a powerful antioxidant, was used as a positive control.
The antioxidant capacity of the Au and Ag complexes was evaluated in 3T3-L1 murine fibroblasts by assessing the intracellular reactive oxygen species (ROS) levels using a DCFH2-DA assay, following a previously established method [36]. The cells were seeded in 96-well plates and incubated with the tested complexes at concentrations of between 0.1 and 20 µM for a 24 h period. […] N-acetylcysteine (NAC), a recognized antioxidant, served as a positive control at 20 mM. […] The % of ROS production inhibition (IROS) vs. that of the menadione-treated cells was calculated using the following formula:(2) IROS vs Men (%)=FMen−FSample/FMen∗100 where FMen represents the average fluorescence of the cells treated with menadione alone, and Fsample represents the average fluorescence of the cells treated with both menadione and the tested complexes or NAC.
Data were plotted as % ROS inhibition with respect to inhibition with Men-only treatment.

hMAO-B = target: T1, hMAO-B (Homo sapiens, UniProt P27338); type: biochemical; conditions: for IC50: mean ± S.D., three experiments in triplicate
T1 sequence (P27338 1-520): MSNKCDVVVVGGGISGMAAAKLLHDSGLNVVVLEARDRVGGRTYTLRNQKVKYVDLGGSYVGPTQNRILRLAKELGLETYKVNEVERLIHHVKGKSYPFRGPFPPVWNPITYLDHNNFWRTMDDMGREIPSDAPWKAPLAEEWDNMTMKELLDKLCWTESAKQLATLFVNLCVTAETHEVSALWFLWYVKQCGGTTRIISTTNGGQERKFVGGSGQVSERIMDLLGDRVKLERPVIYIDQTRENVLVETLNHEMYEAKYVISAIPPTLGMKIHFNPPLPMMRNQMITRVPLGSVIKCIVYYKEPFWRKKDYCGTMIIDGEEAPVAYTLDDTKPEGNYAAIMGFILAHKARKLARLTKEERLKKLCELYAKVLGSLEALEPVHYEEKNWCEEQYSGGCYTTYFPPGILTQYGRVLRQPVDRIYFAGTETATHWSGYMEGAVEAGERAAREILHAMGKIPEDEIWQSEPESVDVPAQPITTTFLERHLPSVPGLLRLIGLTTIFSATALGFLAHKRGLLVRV
Method: (§1) Altered levels of MAO-A/B are associated with the degeneration of neurotransmitter biogenic amines such as serotonin, noradrenaline, and dopamine and are implicated in several diseases, such as depression, cancer, PD, and AD [27]. With this in mind, we explored the potential of these complexes in inhibiting human MAO (hMAO) isoforms.
(§2) The inhibitory activity of the gold and silver complexes against hMAO-A and hMAO-B was evaluated using a previously published protocol. […] Data analysis was performed using GraphPad PRISM 9 (GraphPad Software®, San Diego, CA, USA). IC50 values were determined from the dose–response curves and were presented as the mean ± SD of three independent experiments, each conducted in triplicate.

[2] = system: NO production in LPS-stimulated RAW 264.7 murine macrophages (iNOS); test: Griess assay, NO production (iNOS) in LPS-stimulated RAW 264.7 macrophages; type: cell-based; conditions: for inhibition of NO production: 5 µM
Method: As a positive control, the nonsteroidal anti-inflammatory drug (NSAID) Indomethacin (Ind) was used.
Then, the cell culture medium was combined with an equal volume of Griess reagent at 40 mg/mL (ratio 1:1), and after a 30 min incubation with agitation, the optical density was measured at 540 nm. The levels of NO vs. LPS were calculated from the absorbance measurements using the following formula:(1) INO vs LPS (%)=ABSLPS−ABSSample/ABSLPS∗100 where ABSLPS represents the average absorbance of cells treated with LPS alone, and ABSsample represents the average absorbance of cells treated with both LPS and the tested complexes or Indomethacin.
NO production was induced by LPS (1 µg/mL). […] Salmon histograms: MTT assays performed in same experimental conditions in order to verify effect on RAW 264.7 cells’ viability of Indomethacin and tested complexes. Data were plotted as % of cell viability with respect to viability with LPS-only treatment (1 µg/mL).

[3] = target: equine butyrylcholinesterase (eqBChE) (Equus caballus, UniProt P81908)
equine butyrylcholinesterase (eqBChE), sequence (P81908 whole entry): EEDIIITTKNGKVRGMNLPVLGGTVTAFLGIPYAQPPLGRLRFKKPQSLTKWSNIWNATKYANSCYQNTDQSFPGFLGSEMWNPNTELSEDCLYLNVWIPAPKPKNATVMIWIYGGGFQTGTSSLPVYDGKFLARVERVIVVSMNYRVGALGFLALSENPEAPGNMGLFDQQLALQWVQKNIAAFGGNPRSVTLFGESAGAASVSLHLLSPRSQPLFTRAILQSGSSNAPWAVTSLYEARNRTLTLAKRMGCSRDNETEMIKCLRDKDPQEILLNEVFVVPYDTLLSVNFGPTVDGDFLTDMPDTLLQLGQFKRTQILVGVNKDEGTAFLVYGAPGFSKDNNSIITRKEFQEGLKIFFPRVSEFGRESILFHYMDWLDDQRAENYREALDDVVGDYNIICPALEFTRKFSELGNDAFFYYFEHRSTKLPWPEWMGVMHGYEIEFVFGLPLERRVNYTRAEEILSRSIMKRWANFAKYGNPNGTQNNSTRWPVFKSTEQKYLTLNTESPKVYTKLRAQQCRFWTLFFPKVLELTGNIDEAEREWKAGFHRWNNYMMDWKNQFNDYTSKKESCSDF
Method: (§3) The enzyme-inhibiting properties of the Au and Ag complexes against electric eel acetylcholinesterase (eeAChE) and equine butyrylcholinesterase (eqBChE) were assessed via a modified Ellman assay. […] A buffer-only control was included. The inhibition potency (IC50) was calculated from triplicate dose–response data, presented as the mean ± SD.

[4] = target: electric eel acetylcholinesterase (eeAChE) (Electrophorus electricus, UniProt O42275)
electric eel acetylcholinesterase (eeAChE), sequence (O42275 24-633): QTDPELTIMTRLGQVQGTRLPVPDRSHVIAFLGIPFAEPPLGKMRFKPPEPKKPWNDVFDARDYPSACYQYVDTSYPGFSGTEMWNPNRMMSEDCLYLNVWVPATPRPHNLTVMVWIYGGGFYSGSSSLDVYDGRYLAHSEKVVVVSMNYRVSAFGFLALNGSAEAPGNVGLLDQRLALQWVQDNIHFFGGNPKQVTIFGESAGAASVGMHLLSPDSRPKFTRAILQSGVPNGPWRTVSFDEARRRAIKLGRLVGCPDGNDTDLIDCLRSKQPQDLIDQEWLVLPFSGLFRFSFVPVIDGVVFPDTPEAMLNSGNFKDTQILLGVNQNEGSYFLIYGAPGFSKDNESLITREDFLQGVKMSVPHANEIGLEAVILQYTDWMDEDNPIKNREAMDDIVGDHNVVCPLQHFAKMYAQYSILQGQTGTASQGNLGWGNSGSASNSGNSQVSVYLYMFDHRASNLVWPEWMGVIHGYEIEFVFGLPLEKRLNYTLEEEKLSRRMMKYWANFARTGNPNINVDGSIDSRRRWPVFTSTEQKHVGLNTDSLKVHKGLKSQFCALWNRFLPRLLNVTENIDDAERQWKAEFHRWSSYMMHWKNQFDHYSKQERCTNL
Method: as §3

RAW 264.7 cells = test: MTT cell viability, RAW 264.7; type: cell-based, murine; conditions: RAW 264.7, MTT, 24 h
Method: 3-(4,5-dimethylthiazol-2-yl)-2,5-diphenyl-2H-tetrazolium bromide (MTT) was added to the cells in order to measure the cell viability at 24 h, as previously reported. IC50 values were determined from the dose–response curves for both NO inhibition (%) and the cell viability (%) using GraphPad Prism 9 software (GraphPad Software, La Jolla, CA, USA) and were presented as the mean ± SD of three independent experiments, each conducted in triplicate.
Figure 2 Brown histograms: Anti-inflammatory activity in terms of NO production inhibition (%), measured in vitro using RAW 264.7 murine macrophages. NO production was induced by LPS (1 µg/mL). Data were plotted as % NO inhibition with respect to inhibition with LPS-only treatment. Salmon histograms: MTT assays performed in same experimental conditions in order to verify effect on RAW 264.7 cells’ viability of Indomethacin and tested complexes. Data were plotted as % of cell viability with respect to viability with LPS-only treatment (1 µg/mL). Indomethacin (Ind) was used at concentration of 25 µM, while all other complexes were used at 5 µM, for 24 h. Bars ± SDs are shown (n = 3). ** p < 0.01 and **** p < 0.0001 for complex 3bP and Ind vs. LPS only; not significant (n.s.) where not indicated.

hMAO-A = target: T2, hMAO-A (Homo sapiens, UniProt P21397); test: hMAO-A inhibitory activity; type: biochemical
T2 sequence (P21397 1-527): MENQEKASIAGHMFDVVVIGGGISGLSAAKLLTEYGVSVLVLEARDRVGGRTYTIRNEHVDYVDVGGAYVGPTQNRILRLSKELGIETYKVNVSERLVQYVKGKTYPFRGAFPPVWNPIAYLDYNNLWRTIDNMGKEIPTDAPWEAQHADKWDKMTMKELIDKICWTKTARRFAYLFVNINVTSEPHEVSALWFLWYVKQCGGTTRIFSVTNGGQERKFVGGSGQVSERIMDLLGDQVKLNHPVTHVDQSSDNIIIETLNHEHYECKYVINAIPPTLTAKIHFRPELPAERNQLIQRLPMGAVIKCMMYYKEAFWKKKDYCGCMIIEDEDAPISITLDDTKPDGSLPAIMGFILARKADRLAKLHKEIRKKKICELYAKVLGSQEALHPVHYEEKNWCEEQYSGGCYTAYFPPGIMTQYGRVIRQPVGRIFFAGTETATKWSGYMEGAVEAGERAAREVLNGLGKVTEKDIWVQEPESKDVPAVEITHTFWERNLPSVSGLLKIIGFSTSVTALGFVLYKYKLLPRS
Method: as §1, §2

[5] = LPS 1 µg/mL, RAW 264.7, 24 h, read-out: IC50 (µM) NO Inhibition
[6] = read-out: IC50 (µM) eqBChE, mean ± S.D., three experiments in triplicate
[7] = read-out: IC50 (μM), hBChE (Table S1), Table S1, experimentally derived IC50, column headed hBChE
[8] = read-out: IC50 (µM) eeAChE, mean ± S.D., three experiments in triplicate
[9] = Table S2, experimentally derived IC50, read-out: IC50 (μM), hMAOA (Table S2)
[10] = mean ± S.D., three experiments in triplicate, read-out: IC50 (µM) hMAO-A
[11] = read-out: IC50 (μM), hAChE (Table S1), Table S1, experimentally derived IC50, column headed hAChE

CC(=O)N[C@@H](CS)C(=O)O [NAC, N-acetyl-cysteine, reference compound]
ROS formation reduced to [1]: approximately 70%

C[n+]1c(Cl)c(Cl)n(CC(O)c2ccccc2)[c]1[Ag-][O]C(=O)[C@@H]1CCCN1C(=O)OC(C)(C)C (some centres unmarked) [2aP]
SI, hMAO-B selectivity index = IC50(hMAO-A)/IC50(hMAO-B) (hMAO-B): 1.53 | IC50 (hMAO-B): 9.82 ± 0.84 µM | IC50 [2, 5]: > 50 µM | SI, eqBChE selectivity index = IC50(eeAChE)/IC50(eqBChE) [3]: >1.37 | IC50 [3, 6]: 18.2 ± 2.4 µM | IC50 [3, 7]: 18.2 ± 0.02 µM | IC50 [4, 8]: > 25 µM | IC50 (RAW 264.7 cells): > 50 µM | IC50 (hMAO-A; [9]): 15 ± 0.9 µM | IC50 (hMAO-A; [10]): 15 ± 1.02 µM

C[n+]1[c]([Au-][O]C(=O)[C@@H]2CCCN2C(=O)OC(C)(C)C)n(CC(O)c2ccccc2)c2ccccc21 (some centres unmarked) [4bP]
SI, hMAO-B selectivity index = IC50(hMAO-A)/IC50(hMAO-B) (hMAO-B): 0.03 | IC50 (hMAO-B): 2.1 ± 0.2 µM | IC50 [2, 5]: 13.1 ± 0.92 µM | SI, eqBChE selectivity index = IC50(eeAChE)/IC50(eqBChE) [3]: 8.27 | IC50 [3, 6]: 0.45 ± 0.06 µM | IC50 [4, 8]: 3.72 ± 0.44 µM | IC50 [4, 11]: 3.7 ± 0.02 µM | IC50 (RAW 264.7 cells): 12.1 ± 1.03 µM | IC50 (hMAO-A; [10]): 0.0713 µM | ROS production reduced to, compared to Men treatment alone ([1]; 10 µM): approximately 60%

C[n+]1ccn(CC(O)c2ccccc2)[c]1[Au-][O]C(=O)[C@@H]1CCCN1C(=O)OC(C)(C)C (some centres unmarked) [1bP]
SI, hMAO-B selectivity index = IC50(hMAO-A)/IC50(hMAO-B) (hMAO-B): 0.35 | IC50 (hMAO-B): 3.78 ± 0.16 µM | IC50 [2, 5]: > 50 µM | SI, eqBChE selectivity index = IC50(eeAChE)/IC50(eqBChE) [3]: 2.97 | IC50 [3, 6]: 6.19 ± 0.91 µM | IC50 [4, 8]: 18.4 ± 1.43 µM | IC50 (RAW 264.7 cells): > 50 µM | IC50 (hMAO-A; [10]): 1.32 ± 0.02 µM

C[n+]1[c]([Ag-][O]C(=O)[C@@H]2CCCN2C(=O)OC(C)(C)C)n(CC(O)c2ccccc2)c2ccccc21 (some centres unmarked) [4aP]
SI, hMAO-B selectivity index = IC50(hMAO-A)/IC50(hMAO-B) (hMAO-B): 0.32 | IC50 (hMAO-B): 10.4 ± 1.95 µM | IC50 [2, 5]: > 50 µM | SI, eqBChE selectivity index = IC50(eeAChE)/IC50(eqBChE) [3]: 2.68 | IC50 [3, 6]: 5.19 ± 0.95 µM | IC50 [3, 7]: 5.2 ± 0.05 µM | IC50 [4, 8]: 14 ± 0.72 µM | IC50 [4, 11]: 13.9 ± 0.01 µM | IC50 (RAW 264.7 cells): > 50 µM | IC50 (hMAO-A; [9]): 3.3 ± 0.01 µM | IC50 (hMAO-A; [10]): 3.32 ± 0.15 µM

COc1ccc2c(c1)c(CC(=O)O)c(C)n2C(=O)c1ccc(Cl)cc1 [Indomethacin, reference compound]
inhibition at 25 µM ([2]; Mus musculus, RAW264.7, 25 µM, 24 h, vs LPS-only treatment): ~20% | IC50 ([2]; Mus musculus, RAW264.7, LPS 1 µg/mL, RAW 264.7, 24 h, read-out: IC50 (µM) NO Inhibition): > 50 µM | IC50 (RAW 264.7 cells; Mus musculus, RAW264.7): > 50 µM

C[n+]1c(Cl)c(Cl)n(CC(O)c2ccccc2)[c]1[Au-][O]C(=O)[C@@H]1CCCN1C(=O)OC(C)(C)C (some centres unmarked) [2bP]
SI, hMAO-B selectivity index = IC50(hMAO-A)/IC50(hMAO-B) (hMAO-B): 0.37 | IC50 (hMAO-B): 1.94 ± 0.09 µM | IC50 [2, 5]: 32.3 ± 1.82 µM | SI, eqBChE selectivity index = IC50(eeAChE)/IC50(eqBChE) [3]: 1.49 | IC50 [3, 6]: 3.14 ± 0.33 µM | IC50 [3, 7]: 3.1 ± 0.02 µM | IC50 [4, 8]: 4.68 ± 0.47 µM | IC50 [4, 11]: 4.7 ± 0.02 µM | IC50 (RAW 264.7 cells): > 50 µM | IC50 (hMAO-A; [10]): 0.72 ± 0.02 µM

C[n+]1c(-c2ccccc2)c(-c2ccccc2)n(CC(O)c2ccccc2)[c]1[Ag-][O]C(=O)[C@@H]1CCCN1C(=O)OC(C)(C)C (some centres unmarked) [3aP]
IC50 (hMAO-B): > 25 µM | inhibition of NO production ([2]; 24 h, vs LPS-only treatment): approximately 8% | IC50 [2, 5]: 30.9 ± 1.74 µM | SI, eqBChE selectivity index = IC50(eeAChE)/IC50(eqBChE) [3]: >1.44 | IC50 [3, 6]: 17.4 ± 0.98 µM | IC50 [4, 8]: > 25 µM | IC50 (RAW 264.7 cells): > 50 µM | IC50 (hMAO-A; [10]): 25 ± 2.95 µM

C[n+]1ccn(CC(O)c2ccccc2)[c]1[Ag-][O]C(=O)[C@@H]1CCCN1C(=O)OC(C)(C)C (some centres unmarked) [1aP]
IC50 (hMAO-B): > 25 µM | IC50 [2, 5]: > 50 µM | IC50 [3, 6]: > 25 µM | IC50 [4, 8]: > 25 µM | IC50 (RAW 264.7 cells): > 50 µM | IC50 (hMAO-A; [10]): > 25 µM

C[n+]1c(-c2ccccc2)c(-c2ccccc2)n(CC(O)c2ccccc2)[c]1[Au-][O]C(=O)[C@@H]1CCCN1C(=O)OC(C)(C)C (some centres unmarked) [3bP]
SI, hMAO-B selectivity index = IC50(hMAO-A)/IC50(hMAO-B) (hMAO-B): 0.39 | IC50 (hMAO-B): 4.75 ± 0.75 µM | inhibition of NO production ([2]; 24 h, vs LPS-only treatment): about 52% | IC50 [2, 5]: 4.88 ± 0.58 µM | IC50 ([2]; Table S3, experimentally derived IC50, read-out: IC50 (μM), iNOS (Table S3)): 4.9 ± 0.5 µM | IC50 [3, 6]: > 25 µM | IC50 [4, 8]: 5.89 ± 0.56 µM | IC50 (RAW 264.7 cells): 20.3 ± 1.26 µM | IC50 (hMAO-A; [10]): 1.84 ± 0.18 µM | ROS production reduced to, compared to Men treatment alone ([1]; 1 µM): approximately 70%
